Reference: US10336739B2, “4-hydroxy-3-(heteroaryl)pyridine-2-one APJ agonists” (BRISTOL-MYERS SQUIBB COMPANY, priority 2015, dated 2019)

These molecules were tested against human APJ receptor (Homo sapiens (Human), UniProt P35414) (assay: Intracellular cAMP accumulation assay (APJ hcAMP, HTRF)). Settings: HEK293 cells stably expressing human APJ receptor; inhibition of forskolin-mediated cAMP production; read-out: hAPJ cAMP EC50 (nM) Potency range.
Format: cell-based
In short: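 cAMP inhibition was quantified by HTRF against a cAMP standard curve, with EC50 fitted to a variable-slope sigmoidal curve. Compounds acted on 5,000 APJ-stable HEK293 cells for 30 minutes at room temperature alongside 2 μM forskolin and […] IBMX. Detection reagents were incubated 60 min.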

Sequence of human APJ receptor (P35414 whole entry): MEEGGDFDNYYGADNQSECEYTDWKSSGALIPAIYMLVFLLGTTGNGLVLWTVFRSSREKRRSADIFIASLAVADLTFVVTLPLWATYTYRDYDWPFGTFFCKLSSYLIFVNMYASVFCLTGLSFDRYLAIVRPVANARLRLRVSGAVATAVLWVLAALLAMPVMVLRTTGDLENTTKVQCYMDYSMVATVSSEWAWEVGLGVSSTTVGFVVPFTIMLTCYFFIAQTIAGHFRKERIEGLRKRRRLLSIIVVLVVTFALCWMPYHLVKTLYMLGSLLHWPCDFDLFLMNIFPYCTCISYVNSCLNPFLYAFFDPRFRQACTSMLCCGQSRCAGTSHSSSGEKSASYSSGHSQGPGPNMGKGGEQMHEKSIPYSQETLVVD

First: CCCCc1nc(O)c(-c2nnc(CC(=O)Nc3cccnc3)o2)c(O)c1-c1c(OC)cccc1OC [Example 252, 2-{5-[6-butyl-5-(2,6-dimethoxyphenyl)-2,4-dihydroxy-pyridin-3-yl]-1,3,4-oxadiazol-2-yl}-N-(pyridin-3-yl)acetamide]
Second: COCCOCc1nc(O)c(-c2nnc(Cc3noc4ccccc34)o2)c(O)c1-c1c(OC)cccc1OC [Example 242, 3-{5-[(1,2-benzoxazol-3-yl)methyl]-1,3,4-oxadiazol-2-yl}-5-(2,6-dimethoxyphenyl)-6-[(2-methoxyethoxy)methyl]pyridine-2,4-diol]
The EC50 of the first is lower: 0.01 to 10 nM for the first, 10 to 100 nM for the second.

First: CCOCc1nc(O)c(-c2nnc(Cc3ccc(Cl)cn3)o2)c(O)c1-c1c(O)cccc1O [Example 276, 3-{5-[(5-chloropyridin-2-yl)methyl]-1,3,4-oxadiazol-2-yl}-5-(2,6-dihydroxyphenyl)-6-(ethoxymethyl) pyridine-2,4-diol]
Second: CCOCc1nc(O)c(-c2nnc(Cc3ccc(Cl)cc3)o2)c(O)c1-c1ccccc1OC [Example 249, 3-{5-[(4-chlorophenyl)methyl]-1,3,4-oxadiazol-2-yl}-6-(ethoxymethyl)-5-(2-methoxyphenyl) pyridine-2,4-diol]
The EC50 of the first is higher: 10 to 100 nM for the first, 0.01 to 10 nM for the second. The second is the more potent here.

`CCOCc1nc(O)c(-c2nnc(CNC(=O)c3ccccc3)o2)c(O)c1-c1ccccc1OC` [Example 251, N-({5-[6-(ethoxymethyl)-2,4-dihydroxy-5-(2-methoxyphenyl)-pyridin-3-yl]-1,3,4-oxadiazol-2-yl}methyl) benzamide] and `CCOCc1nc(O)c(-c2nnc(Cc3noc4ccccc34)o2)c(O)c1-c1ccccc1OC` [Example 248, 3-{5-[(1,2-benzoxazol-3-yl)methyl]-1,3,4-oxadiazol-2-yl}-6-(ethoxymethyl)-5-(2-methoxyphenyl) pyridine-2,4-diol] fall in the same range of EC50: 0.01 to 10 nM for the first, 0.01 to 10 nM for the second.

`COc1cccc(OC)c1-c1c(C2CCCC2)[nH]c(=O)c(-c2nnc(Cc3ccc(Cl)cc3)o2)c1O` [Example 239, 3-{5-[(4-chlorophenyl)methyl]-1,3,4-oxadiazol-2-yl}-6-cyclopentyl-5-(2,6-dimethoxyphenyl) pyridine-2,4-diol] gave an EC50 of 0.01 to 10 nM.

Same assay, conditions: HEK293 cells stably expressing human APJ receptor; inhibition of forskolin-mediated cAMP production; read-out: hAPJ cAMP EC50 Potency range

`CCOCc1nc(O)c(-c2nnc(Cc3csc(C)n3)o2)c(O)c1-c1c(OC)cccc1OC` [Example 106, 5-(2,6-dimethoxyphenyl)-6-(ethoxymethyl)-3-{5-[(2-methyl-1,3-thiazol-4-yl)methyl]-1,3,4-oxadiazol-2-yl}pyridine-2,4-diol] and `CCOCc1nc(O)c(-c2nnc(Cc3noc4cccnc34)o2)c(O)c1-c1c(OC)cccc1OC` [Example 228, 5-(2,6-dimethoxyphenyl)-6-(ethoxymethyl)-3-(5-{[1,2]oxazolo[4,5-b]pyridin-3-ylmethyl}-1,3,4-oxadiazol-2-yl)pyridine-2,4-diol] fall in the same range of EC50: 0.01 to 10 nM for the first, 0.01 to 10 nM for the second.

Compared with `CCCCc1nc(O)c(-c2nnc(CNC(=O)OC(C)(C)C)o2)c(O)c1-c1c(OC)cccc1OC` [Example 120, tert-butyl N-({5-[6-butyl-5-(2,6-dimethoxyphenyl)-2,4-dihydroxypyridin-3-yl]-1,3,4-oxadiazol-2-yl}methyl) carbamate], `CCCCc1nc(O)c(-c2nnc(CNC(=O)CC(C)C)o2)c(O)c1-c1c(OC)cccc1OC` [Example 174, N-({5-[6-butyl-5-(2,6-dimethoxyphenyl)-2,4-dihydroxypyridin-3-yl]-1,3,4-oxadiazol-2-yl}methyl)-3-methylbutanamide] is lower in EC50: 10 to 100 nM for the first, 0.01 to 10 nM for the second.

`CCCCc1nc(O)c(-c2nnc(CC(=O)NC3CC3)o2)c(O)c1-c1c(OC)cccc1OC` [Example 188, 2-{5-[6-butyl-5-(2,6-dimethoxyphenyl)-2,4-dihydroxypyridin-3-yl]-1,3,4-oxadiazol-2-yl}-N-cyclo-propylacetamide] and `CCCCc1nc(O)c(-c2nnc(CC(=O)N3CCCC3)o2)c(O)c1-c1c(OC)cccc1OC` [Example 194, 2-{5-[6-butyl-5-(2,6-dimethoxyphenyl)-2,4-dihydroxypyridin-3-yl]-1,3,4-oxadiazol-2-yl}-1-(pyrrolidin-1-yl)ethan-1-one] fall in the same range of EC50: 0.01 to 10 nM for the first, 0.01 to 10 nM for the second.

First: CCCCc1nc(O)c(-c2nnc(Cc3cccc(C(F)(F)F)c3)o2)c(O)c1-c1c(OC)cccc1OC [Example 73, 6-butyl-5-(2,6-dimethoxyphenyl)-3-(5-{[3-(trifluoromethyl)phenyl]methyl}-1,3,4-oxadiazol-2-yl)pyridine-2,4-diol]
Second: CCCCc1nc(O)c(-c2nnc(Cc3cccc(OC)c3)o2)c(O)c1-c1c(OC)cccc1OC [Example 7, 6-butyl-5-(2,6-dimethoxyphenyl)-3-{5-[(3-methoxyphenyl)methyl]-1,3,4-oxadiazol-2-yl}pyridine-2,4-diol]
The EC50 of the first is higher: 10 to 100 nM for the first, 0.01 to 10 nM for the second. The second is the more potent here.

`CCCCc1nc(O)c(-c2nnc(CNC(=O)c3ccncc3)o2)c(O)c1-c1c(OC)cccc1OC` [Example 164, N-({5-[6-butyl-5-(2,6-dimethoxyphenyl)-2,4-dihydroxypyridin-3-yl]-1,3,4-oxadiazol-2-yl}methyl)pyridine-4-carboxamide] and `CCCCc1nc(O)c(-c2nnc(CC(=O)NCc3ccccc3)o2)c(O)c1-c1c(OC)cccc1OC` [Example 186, N-benzyl-2-{5-[6-butyl-5-(2,6-dimethoxyphenyl)-2,4-dihydroxypyridin-3-yl]-1,3,4-oxadiazol-2-yl}acetamide] fall in the same range of EC50: 0.01 to 10 nM for the first, 0.01 to 10 nM for the second.

`CCCCc1nc(O)c(-c2nnc(CCc3nccs3)o2)c(O)c1-c1c(OC)cccc1OC` [Example 72, 6-butyl-5-(2,6-dimethoxyphenyl)-3-{5-[2-(1,3-thiazol-2-yl)ethyl]-1,3,4-oxadiazol-2-yl}pyridine-2,4-diol] and `CCCCc1nc(O)c(-c2nnc(CCc3nc4ccccc4o3)o2)c(O)c1-c1c(OC)cccc1OC` [Example 47, 3-{5-[2-(1,3-benzoxazol-2-yl)ethyl]-1,3,4-oxadiazol-2-yl}-6-butyl-5-(2,6-dimethoxyphenyl) pyridine-2,4-diol] fall in the same range of EC50: 0.01 to 10 nM for the first, 0.01 to 10 nM for the second.

First: CCCCc1nc(O)c(-c2nnc(Cc3nnc(-c4cccc(Cl)c4)o3)o2)c(O)c1-c1c(OC)cccc1OC [Example 210, 6-butyl-3-(5-{[5-(3-chlorophenyl)-1,3,4-oxadiazol-2-yl]methyl}-1,3,4-oxadiazol-2-yl)-5-(2,6-dimethoxyphenyl) pyridine-2,4-diol]
Second: CCCCc1nc(O)c(-c2nnc(Cc3nc(-c4cccnc4)no3)o2)c(O)c1-c1c(OC)cccc1OC [Example 101, 6-butyl-5-(2,6-dimethoxyphenyl)-3-(5-{[3-(pyridin-3-yl)-1,2,4-oxadiazol-5-yl]methyl}-1,3,4-oxadiazol-2-yl)pyridine-2,4-diol]
The EC50 of the first is higher: 10 to 100 nM for the first, 0.01 to 10 nM for the second.

First: CCCCc1nc(O)c(-c2nnc(CN3CCCC3=O)o2)c(O)c1-c1c(OC)cccc1OC [Example 105, 1-({5-[6-butyl-5-(2,6-dimethoxyphenyl)-2,4-dihydroxypyridin-3-yl]-1,3,4-oxadiazol-2-yl}methyl) pyrrolidin-2-one]
Second: CCCCc1nc(O)c(-c2nnc(CNC(=O)C(F)(F)F)o2)c(O)c1-c1c(OC)cccc1OC [Example 176, N-({5-[6-butyl-5-(2,6-dimethoxyphenyl)-2,4-dihydroxypyridin-3-yl]-1,3,4-oxadiazol-2-yl}methyl)-2,2,2-trifluoroacetamide]
The EC50 of the first is lower: 0.01 to 10 nM for the first, 10 to 100 nM for the second.

`CCCCc1nc(O)c(-c2nnc(Cc3ccc(F)c(F)c3)o2)c(O)c1-c1cccc(CC)c1` [Example 140, 6-butyl-3-{5-[(3,4-difluorophenyl)methyl]-1,3,4-oxadiazol-2-yl}-5-(3-ethylphenyl) pyridine-2,4-diol] and `CCCCc1nc(O)c(-c2nnc(Cc3ccccc3OC)o2)c(O)c1-c1c(OC)cccc1OC` [Example 6, 6-butyl-5-(2,6-dimethoxyphenyl)-3-{5-[(2-methoxyphenyl)methyl]-1,3,4-oxadiazol-2-yl}pyridine-2,4-diol] fall in the same range of EC50: 10 to 100 nM for the first, 10 to 100 nM for the second.

`CCCCc1nc(O)c(-c2nnc(CN(C)C(=O)C(C)(C)C)o2)c(O)c1-c1c(OC)cccc1OC` [Example 169, N-({5-[6-butyl-5-(2,6-dimethoxyphenyl)-2,4-dihydroxypyridin-3-yl]-1,3,4-oxadiazol-2-yl}methyl)-N,2,2-trimethyl-propanamide] and `CCCCc1nc(O)c(-c2nnc(C3NCCc4ccccc43)o2)c(O)c1-c1c(OC)cccc1OC` (stereo not shown) [Example 61, 6-butyl-5-(2,6-dimethoxyphenyl)-3-[5-(1,2,3,4-tetra-hydroisoquinolin-1-yl)-1,3,4-oxadiazol-2-yl]pyridine-2,4-diol] fall in the same range of EC50: 0.01 to 10 nM for the first, 0.01 to 10 nM for the second.

First: COc1cccc(OC)c1-c1c(C2CC2)[nH]c(=O)c(-c2nnc(Cc3ccc(Cl)cc3)o2)c1O [Example 93, 3-{5-[(4-chlorophenyl)methyl]-1,3,4-oxadiazol-2-yl}-6-cyclopropyl-5-(2,6-dimethoxyphenyl) pyridine-2,4-diol]
Second: CCOCc1nc(O)c(-c2nnc(Cc3noc4ccccc34)o2)c(O)c1-c1c(OC)cccc1OC [Example 89, 3-[5-(1,2-benzoxazol-3-ylmethyl)-1,3,4-oxadiazol-2-yl]-5-(2,6-dimethoxyphenyl)-6-(ethoxymethyl) pyridine-2,4-diol]
The EC50 of the first is higher: 10 to 100 nM for the first, 0.01 to 10 nM for the second. The second is the more potent here.

`CCCCc1nc(O)c(-c2nnc(Cc3noc4ccccc34)o2)c(O)c1-c1c(Cl)cccc1Cl` [Example 86, 3-[5-(1,2-benzoxazol-3-ylmethyl)-1,3,4-oxadiazol-2-yl]-6-butyl-5-(2,6-dichlorophenyl) pyridine-2,4-diol] and `CCOCc1nc(O)c(-c2nnc(Cc3noc4ccccc34)o2)c(O)c1-c1c(OC)cc(F)cc1OC` [Example 213, 3-[5-(1,2-benzoxazol-3-ylmethyl)-1,3,4-oxadiazol-2-yl]-6-(ethoxymethyl)-5-(4-fluoro-2,6-dimethoxyphenyl) pyridine-2,4-diol] fall in the same range of EC50: 0.01 to 10 nM for the first, 0.01 to 10 nM for the second.
